Reference: patent US20250228899A1, “GENERATING AND UTILIZING ADULT HEPATOCYTE ORGANOIDS” (University of Washington, priority 2021, published 2025)

Tested on: adult human hepatocytes
Test: Adult human hepatocyte organoids grown in different concentrations of A83-01
Type: cell-based
Conditions: albumin secretion and organoid cross-sectional area readouts
Method: In this Example, adult human hepatocytes were grown in different concentrations of A83-01, ranging from 0 nM to 40 nM. FIG. 16 illustrates albumin secretion of hepatocytes grown with 6 different concentrations of A83-01 measured by human albumin ELISA. FIG. 17 illustrates average cross-sectional area of organoids in individual wells grown in 4 different concentrations of A83-01 ranging from 0 to 100 nM. Data is represented as the mean, plus or minus standard deviation of more than 20 wells. FIG. 18 illustrates albumin secretion measured by human Albumin ELISA, comparing adult human hepatocyte organoids grown in 5 different concentrations of A83-01 ranging from 0 nM to 40 nM. The results of these studies illustrate that medium containing less than 50 nM of A83-01 is effective for adult hepatocyte growth.

A83-01 concentration in medium effective for adult hepatocyte growth: less than 50 nM
SMILES: Cc1cccc(-c2nn(C(=S)Nc3ccccc3)cc2-c2ccnc3ccccc23)n1 [A83-01]
